19 compounds from ChEMBL document CHEMBL5634096, “Design, synthesis and bioevaluation of PI3Kα-selective inhibitors as potential colorectal cancer drugs” (Eur J Med Chem, 2023) can be followed below.

Test [1] concerns the target Phosphatidylinositol 4,5-bisphosphate 3-kinase catalytic subunit alpha isoform (Homo sapiens, UniProt P42336). Briefly: Inhibition of PI3Kalpha (unknown origin) by ADP-Glo luminescent kinase assay.
The next test concerns SW-620. In words: Antiproliferative activity against human SW-620 cells assessed as reduction in cell viability incubated for 24 to 48 hrs by CCK-8 assay. It is filed as functional, cell-based.
A further test relates to MDA-MB-231. In words: Antiproliferative activity against human MDA-MB-231 cells assessed as reduction in cell viability incubated for 24 to 48 hrs by CCK-8 assay. Type of test: functional, cell-based.
A further test has as its system HCT-116. Briefly: Antiproliferative activity against human HCT-116 cells assessed as reduction in cell viability incubated for 24 to 48 hrs by CCK-8 assay. It is filed as functional, cell-based.
The next test has as its system MCF7. In words: Antiproliferative activity against human MCF7 cells assessed as reduction in cell viability incubated for 24 to 48 hrs by CCK-8 assay. It is filed as functional, cell-based.

Chain of Phosphatidylinositol 4,5-bisphosphate 3-kinase catalytic subunit alpha isoform (P42336 whole entry, canonical isoform): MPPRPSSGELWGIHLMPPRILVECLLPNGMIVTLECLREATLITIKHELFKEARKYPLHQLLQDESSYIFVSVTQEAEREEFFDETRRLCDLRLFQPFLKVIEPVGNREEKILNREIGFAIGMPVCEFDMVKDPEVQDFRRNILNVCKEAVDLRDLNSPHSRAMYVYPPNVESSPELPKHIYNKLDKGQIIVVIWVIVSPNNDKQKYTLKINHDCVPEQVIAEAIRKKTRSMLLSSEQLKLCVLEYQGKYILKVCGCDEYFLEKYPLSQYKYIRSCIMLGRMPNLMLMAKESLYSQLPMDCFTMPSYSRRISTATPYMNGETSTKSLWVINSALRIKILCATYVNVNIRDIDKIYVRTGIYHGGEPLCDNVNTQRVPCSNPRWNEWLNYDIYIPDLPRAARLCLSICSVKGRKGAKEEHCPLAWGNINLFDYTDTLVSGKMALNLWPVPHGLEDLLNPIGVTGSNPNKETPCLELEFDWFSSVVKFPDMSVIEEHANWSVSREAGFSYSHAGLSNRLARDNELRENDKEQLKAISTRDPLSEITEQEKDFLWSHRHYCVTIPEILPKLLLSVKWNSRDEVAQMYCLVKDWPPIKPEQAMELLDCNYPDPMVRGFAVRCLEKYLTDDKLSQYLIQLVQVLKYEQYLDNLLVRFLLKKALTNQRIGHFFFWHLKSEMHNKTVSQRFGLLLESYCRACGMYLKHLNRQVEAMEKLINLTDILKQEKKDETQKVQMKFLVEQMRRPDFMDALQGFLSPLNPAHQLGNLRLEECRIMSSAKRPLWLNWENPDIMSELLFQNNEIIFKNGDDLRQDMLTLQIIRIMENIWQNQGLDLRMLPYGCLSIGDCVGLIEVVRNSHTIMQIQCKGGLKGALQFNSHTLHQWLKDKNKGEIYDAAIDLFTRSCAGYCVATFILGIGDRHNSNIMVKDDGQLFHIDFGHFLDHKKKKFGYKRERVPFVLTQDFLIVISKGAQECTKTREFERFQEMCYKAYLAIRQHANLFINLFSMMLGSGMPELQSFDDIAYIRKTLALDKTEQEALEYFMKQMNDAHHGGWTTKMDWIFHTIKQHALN

`COC1CCN(C(=O)c2cnc3ccc(-c4ccc5oc(N)nc5c4)cn23)C1` (stereo not drawn): the IC50 in test [1] worked out at 9680 nM.
With `C[C@H](Nc1cnc2ccc(-c3ccc4oc(N)nc4c3)cc2n1)C(N)=O`, the IC50 in test [1] worked out at 499 nM; in the test on SW-620 it was 60.2 µM; in the test with MDA-MB-231 it was 15.3 µM; with HCT-116, 25.4 µM; with MCF7 it was 10.5 µM.
On to `NC(=O)[C@H](NC(=O)c1cnc2ccc(-c3ccc4oc(N)nc4c3)cn12)c1ccccc1`, for which the IC50 in test [1] is 23.1 nM; in the test on SW-620, 49.9 µM; in the test on MDA-MB-231 it was above 100 µM; in the test with HCT-116 it was 7.3 µM; with MCF7, 12.2 µM.
In test [1], `Nc1nc2cc(-c3ccc4ncc(NCC(=O)NO)nc4c3)ccc2o1` gave an IC50 of 107 nM.
The same measure, in the same setting: the figure for `Nc1nc2cc(-c3ccc4ncc(N5C[C@@H]6OCCO[C@H]6C5)nc4c3)ccc2o1` is 603 nM.
On to `NC(=O)[C@@H]1CCCN1C(=O)c1cnc2ccc(-c3ccc4oc(N)nc4c3)cn12`, for which the IC50 in test [1] was 18.1 nM; in the test with SW-620, 12 µM; in the test on MDA-MB-231 it was 25 µM; in the test with HCT-116, 10 µM; in the test with MCF7, 2.18 µM.
The like results for `Nc1nc2ccc(-c3ccc4ncc(C(=O)N5CCOC(CO)C5)n4c3)cc2o1` (single isomer, unassigned) were, in that order, 18.6 nM, above 100 µM, 17.2 µM, 14.5 µM and 19 µM.
For the compound `Nc1nc2cc(-c3ccc4ncc(C(=O)N5C[C@H]6OCCO[C@@H]6C5)n4c3)ccc2o1` (single isomer, unassigned), the 50% inhibitory concentration (IC50) came to 8.8 nM in test [1]; 13.5 µM in the test with SW-620; 10.8 µM in the test with MDA-MB-231; 7.95 µM in the test on HCT-116; 5.89 µM in the test on MCF7.
In the same order, the values of `CN(C)C1CCN(C(=O)c2cnc3ccc(-c4ccc5oc(N)nc5c4)cn23)CC1` are 28.2 nM, 32 µM, above 100 µM, 4.03 µM and 3.36 µM.
The like results for `NC(=O)[C@H](Cc1ccc(O)cc1)NC(=O)c1cnc2ccc(-c3ccc4oc(N)nc4c3)cn12` were, in that order, 3520 nM, 28.8 µM, above 100 µM, above 100 µM and 14.7 µM.
In the same order, the values of `CCOC(=O)[C@H](C)NC(=O)c1cnc2ccc(-c3ccc4oc(N)nc4c3)cn12` are above 10000 nM, above 100 µM, above 100 µM, above 100 µM and above 100 µM.
As to `Nc1nc2cc(-c3ccc4ncc(C(=O)N5CCNCC5)n4c3)ccc2o1`, the midpoint of inhibition in test [1], the IC50, lay at 138 nM.
With `CCC(NC(=O)c1cnc2ccc(-c3ccc4oc(N)nc4c3)cn12)C(=O)OC` (stereo not drawn), the IC50 in test [1] was 807 nM; in the test with SW-620 it was above 100 µM; with MDA-MB-231 it was above 100 µM; in the test with HCT-116, above 100 µM; in the test on MCF7 it was above 100 µM.
In test [1], `NC(=O)CNc1ncnc2ccc(-c3ccc4oc(N)nc4c3)cc12` had an IC50 of 25.5 nM.
The same measure, in the same setting: the figure for `Nc1nc2cc(-c3ccc4nc(N5C[C@@H]6OCCO[C@@H]6C5)cnc4c3)ccc2o1` is 1640 nM.
The same measure, in the same setting: the figure for `NC(=O)CNc1cnc2cc(-c3ccc4oc(N)nc4c3)ccc2n1` is 476 nM.
Regarding `NC(=O)[C@H](Cc1ccccc1)NC(=O)c1cnc2ccc(-c3ccc4oc(N)nc4c3)cn12`, the half-inhibitory concentration (IC50) stood at 11.2 nM in test [1]; 8.4 µM in the test on SW-620; 18.2 µM in the test with MDA-MB-231; 7.72 µM in the test on HCT-116; 18.8 µM in the test with MCF7.
The like results for `C[C@@H](NC(=O)c1cnc2ccc(-c3ccc4oc(N)nc4c3)cn12)C(N)=O` were, in that order, above 10000 nM, above 100 µM, above 100 µM, above 100 µM and 36.1 µM.
`C[C@H](NC(=O)c1cnc2ccc(-c3ccc4oc(N)nc4c3)cn12)C(=O)O`: the IC50 in test [1] was above 10000 nM.
